Results published in ChEMBL document CHEMBL3232781, “Fluorinated benzophenone derivatives: balanced multipotent agents for Alzheimer's disease” (Eur J Med Chem, 2014).
pIC50: −log10 of the molar value. Activity calls are given as the source filed them. The rule behind the calls is not given here.

What was measured:
[1] = target: Beta-secretase 1 (Homo sapiens) (UniProt P56817); assay: Inhibition of human recombinant BACE-1 using M-2420 as substrate up to 4 uM incubated for 1 hr prior to substrate addition measured after 15 mins by FRET assay
Acetylcholinesterase = Acetylcholinesterase (Homo sapiens, UniProt P22303); assay: Inhibition of human recombinant AChE using acetylthiocholine iodide as substrate preincubated for 20 mins by Ellman's method
[2] = target: Beta-secretase 1 (Homo sapiens) (UniProt P56817); assay: Inhibition of human recombinant BACE-1 using M-2420 as substrate at 3 uM incubated for 1 hr prior to substrate addition measured after 15 mins by FRET assay relative to control
SH-SY5Y [3] = assay: Antioxidant activity in human SH-SY5Y cells assessed as inhibition of t-BuOOH-induced intracellular ROS formation at 3 to 5 uM after 30 mins by dihydroethidium-based spectrofluorometric analysis; format: functional, cell-based
SH-SY5Y [4] = assay: Antioxidant activity in human SH-SY5Y cells assessed as inhibition of amyloid beta (25 to 35)-induced intracellular ROS formation at 3 to 5 uM after 3 hrs by dihydroethidium-based fluorescence microscopic analysis relative to control; format: functional
SH-SY5Y [5] = assay: Neurotoxicity in human SH-SY5Y cells assessed as decrease in cell viability at 10 to 50 uM after 24 hrs by MTT assay; format: toxicity, cell-based
SH-SY5Y [6] = assay: Antioxidant activity in human SH-SY5Y cells assessed as inhibition of t-BuOOH-induced intracellular ROS formation at 500 uM after 30 mins by dihydroethidium-based spectrofluorometric analysis relative to control; format: functional; conditions: 0.5 h
SH-SY5Y [7] = assay: Antioxidant activity in human SH-SY5Y cells assessed as inhibition of amyloid beta (25 to 35)-induced intracellular ROS formation at 500 uM after 3 hrs by dihydroethidium-based fluorescence microscopic analysis relative to control; format: functional
[8] = target: Beta-secretase 1 (Homo sapiens) (UniProt P56817); assay: Inhibition of human recombinant BACE-1 using M-2420 as substrate at 5 uM incubated for 1 hr prior to substrate addition measured after 15 mins by FRET assay relative to control
[9] = target: Beta-secretase 1 (Homo sapiens) (UniProt P56817); assay: Inhibition of human recombinant BACE-1 using M-2420 as substrate at 3.38 uM incubated for 1 hr prior to substrate addition measured after 15 mins by FRET assay relative to control

Sequence of Beta-secretase 1 (Homo sapiens) (P56817 whole entry): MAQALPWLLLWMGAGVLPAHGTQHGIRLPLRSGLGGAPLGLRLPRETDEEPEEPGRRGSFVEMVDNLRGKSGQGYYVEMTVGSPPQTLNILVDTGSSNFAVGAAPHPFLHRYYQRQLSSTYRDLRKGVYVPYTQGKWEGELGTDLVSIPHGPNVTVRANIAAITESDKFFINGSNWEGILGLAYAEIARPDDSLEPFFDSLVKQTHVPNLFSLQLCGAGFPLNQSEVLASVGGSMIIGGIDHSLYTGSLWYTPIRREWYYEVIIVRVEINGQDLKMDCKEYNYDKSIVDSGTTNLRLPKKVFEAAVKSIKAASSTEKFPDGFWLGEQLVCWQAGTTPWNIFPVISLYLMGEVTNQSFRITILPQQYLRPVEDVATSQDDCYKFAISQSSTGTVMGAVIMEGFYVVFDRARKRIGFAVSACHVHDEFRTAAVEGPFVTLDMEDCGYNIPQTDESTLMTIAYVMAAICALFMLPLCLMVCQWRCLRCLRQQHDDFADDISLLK
Sequence of Acetylcholinesterase (P22303 whole entry): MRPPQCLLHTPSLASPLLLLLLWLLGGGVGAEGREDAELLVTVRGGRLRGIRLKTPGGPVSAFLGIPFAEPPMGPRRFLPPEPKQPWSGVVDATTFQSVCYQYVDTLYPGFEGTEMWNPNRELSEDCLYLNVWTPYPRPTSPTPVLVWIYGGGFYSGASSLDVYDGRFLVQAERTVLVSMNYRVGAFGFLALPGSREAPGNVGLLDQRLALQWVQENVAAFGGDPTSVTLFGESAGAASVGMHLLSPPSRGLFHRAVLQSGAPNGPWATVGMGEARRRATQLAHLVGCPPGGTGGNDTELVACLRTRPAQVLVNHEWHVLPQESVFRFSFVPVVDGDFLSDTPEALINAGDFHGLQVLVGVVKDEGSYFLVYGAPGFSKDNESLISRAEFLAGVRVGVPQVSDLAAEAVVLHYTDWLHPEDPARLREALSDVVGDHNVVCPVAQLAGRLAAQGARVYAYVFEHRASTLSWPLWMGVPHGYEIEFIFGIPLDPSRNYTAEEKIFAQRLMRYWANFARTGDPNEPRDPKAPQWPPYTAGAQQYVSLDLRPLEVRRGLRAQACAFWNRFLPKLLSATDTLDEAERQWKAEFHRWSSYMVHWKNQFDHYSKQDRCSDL

| Structure (SMILES) | inhibition [1] | inhibition (Acetylcholinesterase) | inhibition [2] | further results |
| --- | --- | --- | --- | --- |
| CN(Cc1ccc(C(=O)c2ccc(O)c(F)c2)cc1)Cc1cccc(O)c1 | inactive | inactive | – | – |
| CN(Cc1ccc(C(=O)c2ccc(O)c(F)c2)cc1)C1CCCCC1 | – | inactive | 36.2% | – |
| CN1CCN(Cc2ccc(C(=O)c3ccc(O)c(F)c3)cc2)CC1 | inactive | inactive | – | – |
| CN(C)CCN(C)Cc1ccc(C(=O)c2ccc(O)c(F)c2)cc1 | – | inactive | 13.5% | – |
| O=C(c1ccc(CN2CCC(CCO)CC2)cc1)c1ccc(O)c(F)c1 | – | – | 58.7% | pIC50 (Acetylcholinesterase): 5.63; inhibition (SH-SY5Y [3]): Active; Imax (SH-SY5Y [4]): 30%; Activity (SH-SY5Y [5]): Non-toxic |
| CN(CCO)Cc1ccc(C(=O)c2ccc(O)c(F)c2)cc1 | – | inactive | 46.7% | – |
| CC(=O)N[C@@H](CS)C(=O)O [ACETYLCYSTEINE] | – | – | – | inhibition at 500 µM (SH-SY5Y [6]): 35%; inhibition at 500 µM (SH-SY5Y [7]): 35% |
| COc1ccc(C(=O)c2ccc(CN(C)Cc3ccccc3)cc2)cc1OC | – | – | – | inhibition [8]: 20% |
| O=C(c1ccc(CN2CCN(Cc3ccccc3)CC2)cc1)c1ccc(O)c(F)c1 | inactive | inactive | – | – |
| O=C(c1ccc(CN2CCC(O)CC2)cc1)c1ccc(O)c(F)c1 | – | inactive | 32.8% | – |
| CN(Cc1ccccc1)Cc1ccc(C(=O)c2ccc(O)c(F)c2)cc1 | – | – | 40.8% | pIC50 (Acetylcholinesterase): 5.44; inhibition (SH-SY5Y [3]): Active; Imax (SH-SY5Y [4]): 30%; Activity (SH-SY5Y [5]): Toxic |
| Cc1ccc(C(=O)c2ccc(O)c(F)c2)cc1 | – | inactive | 35.4% | – |
| COc1ccc(C(=O)c2ccc(CN(C)Cc3ccccc3)cc2)cc1 | inactive | – | – | – |
| CN(Cc1ccccc1)Cc1ccc(C(=O)c2ccc(O)cc2)cc1 | inactive | – | – | – |
| COc1ccc(C(=O)c2ccc(CN(C)Cc3ccccc3)cc2)cc1F | – | – | – | inhibition [9]: 10.7%; inhibition (SH-SY5Y [3]): inactive; inhibition (SH-SY5Y [4]): inactive; Activity (SH-SY5Y [5]): Non-toxic |
| O=C(c1ccc(CN2CCN(c3ccccc3)CC2)cc1)c1ccc(O)c(F)c1 | inactive | inactive | – | – |
